Patent US12285407B2, “Bis-indolylmethane derivatives and uses thereof” (The University of The West Indies, priority 2018, dated 2025)
Like-named read-outs stand apart in the source and are kept apart here.

Columns and labels:
Enterococcus faecium = experiment: Checkerboard synergy (FICI) of antibiotics with SP-BIM; type: cell-based; details: Enterococcus faecium, Enterococcus faecium; for MIC: 24 h, antibiotic alone, read-out: MIC antibiotic only
Klebsiella pneumoniae [1] = experiment: as above; type: cell-based; details: for MIC: 24 h, antibiotic alone, read-out: MIC antibiotic only
Klebsiella pneumoniae [2] = experiment: Adjuvant broth microdilution (antibiotic MIC with SP-BIM at 50 μg/mL); type: cell-based; details: antibiotic alone
Candida albicans = experiment: Checkerboard synergy (FICI) of antibiotics with SP-BIM; design: MIC SP-BIM 13 only / MIC in combination: Antibiotic / MIC antibiotic only: unit not given beside the values
Escherichia coli [3] = experiment: microbe, parasite or virus in culture; type: cell-based; details: antibiotic alone, Table 6, read-out: MIC of antibiotic, No compound
Staphylococcus aureus = experiment: Checkerboard synergy (FICI) of antibiotics with SP-BIM; type: cell-based; details: Staphylococcus aureus, Staphylococcus aureus; for MIC: 24 h, antibiotic alone, read-out: MIC antibiotic only
Escherichia coli O157:H7 = type: cell-based; details: antibiotic alone, no SP-BIM
Enterobacter cloacae = experiment: Adjuvant broth microdilution (antibiotic MIC with SP-BIM at 50 μg/mL); type: cell-based; details: antibiotic alone
Streptococcus pneumoniae [4] = experiment: as above; type: cell-based; details: Streptococcus pneumoniae; Streptococcus pneumonia; antibiotic alone; Table 5; read-out: MIC of antibiotic, No compound
Escherichia coli [5] = experiment: Checkerboard synergy (FICI) of antibiotics with SP-BIM; design: MIC SP-BIM 13 only / MIC in combination: Antibiotic: unit not given beside the values; details: for MIC: 24 h
Streptococcus pneumoniae [6] = experiment: as above; type: cell-based; details: for MIC: 24 h, antibiotic alone, read-out: MIC antibiotic only
Pseudomonas aeruginosa = experiment: Adjuvant broth microdilution (antibiotic MIC with SP-BIM at 50 μg/mL); type: cell-based; details: antibiotic alone
Bacillus cereus [7] = experiment: as above; type: cell-based; details: antibiotic alone, Table 9
Bacillus cereus [8] = experiment: Checkerboard synergy (FICI) of antibiotics with SP-BIM; type: cell-based; details: for MIC: 24 h, antibiotic alone, read-out: MIC antibiotic only
[9] = SP-BIM 13 in combination with the labelled antibiotic
[10] = antibiotic in combination with SP-BIM 13
[11] = SP-BIM 9 in combination with the labelled antibiotic
[12] = antibiotic in combination with SP-BIM 9
[13] = MIC of the antibiotic in combination with SP-BIM 13
[14] = Streptococcus pneumonia (title: Streptococcus pyogenes), antibiotic + SP-BIM 9
[15] = Streptococcus pneumoniae, antibiotic + SP-BIM 13

C[C@H]1c2cccc(O)c2C(=O)C2=C(O)[C@]3(O)C(=O)C(C(N)=O)=C(O)[C@@H](N(C)C)[C@@H]3[C@@H](O)[C@@H]21 [Doxycycline, doxycycline]
MIC (Enterococcus faecium; SP-BIM 9 checkerboard): 8 µg/mL | MIC (Enterococcus faecium; SP-BIM 13 checkerboard): 8 µg/mL | FIC of SP-BIM 13 (Enterococcus faecium; [9]): 0.5 | Interpretation (Enterococcus faecium; antibiotic + SP-BIM 13): Additive (Additive: FICI>0.5-1.0) | Σ FIC (Enterococcus faecium; antibiotic + SP-BIM 13): 0.6 | MIC in combination, Antibiotic (Enterococcus faecium; [10]): 1 µg/mL | FIC of antibiotic (Enterococcus faecium; in combination with SP-BIM 13): 0.1 | MIC (Klebsiella pneumoniae [1]; SP-BIM 9 checkerboard): 16 µg/mL | MIC (Klebsiella pneumoniae [1]; SP-BIM 13 checkerboard): 16 µg/mL | FIC of SP-BIM 9 (Klebsiella pneumoniae [1]; [11]): 0.5 | FIC of SP-BIM 13 (Klebsiella pneumoniae [1]; [9]): 0.3 | Interpretation (Klebsiella pneumoniae [1]; antibiotic + SP-BIM 9): Additive (Additive: FICI>0.5-1.0) | Σ FIC (Klebsiella pneumoniae [1]; antibiotic + SP-BIM 9): <0.8 | Interpretation (Klebsiella pneumoniae [1]; antibiotic + SP-BIM 13): Synergy (Synergy: FICI≤0.5) | Σ FIC (Klebsiella pneumoniae [1]; antibiotic + SP-BIM 13): <0.4 | MIC in combination, Antibiotic (Klebsiella pneumoniae [1]; [12]): 4 µg/mL | MIC in combination, Antibiotic (Klebsiella pneumoniae [1]; [10]): 2 µg/mL | FIC of antibiotic (Klebsiella pneumoniae [1]; in combination with SP-BIM 9): 0.25 | FIC of antibiotic (Klebsiella pneumoniae [1]; in combination with SP-BIM 13): 0.1 | MIC of antibiotic, No Compound (Klebsiella pneumoniae [2]; Klebsiella pneumonia, no SP-BIM): 8 µg/mL | MIC (Klebsiella pneumoniae [2]; Klebsiella pneumoniae, Table 7, read-out: MIC of antibiotic, No compound): 32 µg/mL | MIC (Candida albicans; 24 h, read-out: MIC antibiotic only): 16 µg/mL | MIC in combination: Antibiotic (Candida albicans; [13]): 2 | FIC of SP-BIM 13 (Candida albicans; [9]): 0.5 | Interpretation (Candida albicans; antibiotic + SP-BIM 13): Additive (Additive: FICI>0.5-1.0) | Σ FIC (Candida albicans; antibiotic + SP-BIM 13): <0.6 | FIC of antibiotic (Candida albicans; combination with SP-BIM 13): 0.1 | MIC (Escherichia coli [3]): 63 µg/mL | MIC (Staphylococcus aureus; SP-BIM 9 checkerboard): 8 µg/mL | MIC (Staphylococcus aureus; SP-BIM 13 checkerboard): 8 µg/mL | FIC of SP-BIM 9 (Staphylococcus aureus; [11]): 0.13 | FIC of SP-BIM 13 (Staphylococcus aureus; [9]): 0.3 | Interpretation (Staphylococcus aureus; antibiotic + SP-BIM 9): Synergy (Synergy: FICI≤0.5) | Σ FIC (Staphylococcus aureus; antibiotic + SP-BIM 9): <0.38 | Interpretation (Staphylococcus aureus; antibiotic + SP-BIM 13): Synergy (Synergy: FICI≤0.5) | Σ FIC (Staphylococcus aureus; antibiotic + SP-BIM 13): 0.4 | MIC in combination, Antibiotic (Staphylococcus aureus; [12]): 2.0 µg/mL | MIC in combination, Antibiotic (Staphylococcus aureus; [10]): 1 µg/mL | FIC of antibiotic (Staphylococcus aureus; in combination with SP-BIM 9): 0.25 | FIC of antibiotic (Staphylococcus aureus; in combination with SP-BIM 13): 0.1 | MIC of antibiotic, No Compound (Escherichia coli O157:H7): 2 µg/mL | MIC of antibiotic, No Compound (Enterobacter cloacae): 4 µg/mL | MIC (Streptococcus pneumoniae [4]): 63 µg/mL | MIC (Escherichia coli [5]; read-out: MIC antibiotic only, Escherichia coli, antibiotic alone): 16 µg/mL | MIC (Escherichia coli [5]; read-out: MIC antibiotic only, Escherichia coli, antibiotic alone, SP-BIM 9 checkerboard): 16 µg/mL | MIC in combination: Antibiotic (Escherichia coli [5]; [13]): 2 | FIC of SP-BIM 9 (Escherichia coli [5]; [11]): 0.5 | FIC of SP-BIM 13 (Escherichia coli [5]; [9]): 0.3 | Interpretation (Escherichia coli [5]; antibiotic + SP-BIM 9): Synergy (Synergy: FICI≤0.5) | Σ FIC (Escherichia coli [5]; antibiotic + SP-BIM 9): <1.0 | Interpretation (Escherichia coli [5]; antibiotic + SP-BIM 13): Synergy (Synergy: FICI≤0.5) | Σ FIC (Escherichia coli [5]; antibiotic + SP-BIM 13): <0.4 | MIC in combination, Antibiotic (Escherichia coli [5]; [12]): 8 µg/mL | FIC of antibiotic (Escherichia coli [5]; combination with SP-BIM 13): 0.1 | FIC of antibiotic (Escherichia coli [5]; in combination with SP-BIM 9): 0.5 | FIC of SP-BIM 9 (Streptococcus pneumoniae [6]; Streptococcus pneumonia (title: Streptococcus pyogenes), SP-BIM 9 in combination with the labelled antibiotic): 0.50 | Interpretation (Streptococcus pneumoniae [6]; [14]): Additive (Additive: FICI>0.5-1.0) | Σ FIC (Streptococcus pneumoniae [6]; [14]): <0.75 | MIC in combination, Antibiotic (Streptococcus pneumoniae [6]; Streptococcus pneumonia (title: Streptococcus pyogenes), antibiotic in combination with SP-BIM 9): 4 µg/mL | FIC of antibiotic (Streptococcus pneumoniae [6]; Streptococcus pneumonia (title: Streptococcus pyogenes), in combination with SP-BIM 9): 0.25 | MIC (Streptococcus pneumoniae [6]; Streptococcus pneumoniae, Streptococcus pneumonia (title: Streptococcus pyogenes), SP-BIM 9 checkerboard): 16 µg/mL | MIC (Streptococcus pneumoniae [6]; Streptococcus pneumoniae, Streptococcus pneumoniae, SP-BIM 13 checkerboard): 16 µg/mL | FIC of SP-BIM 13 (Streptococcus pneumoniae [6]; Streptococcus pneumoniae, SP-BIM 13 in combination with the labelled antibiotic): 0.3 | Interpretation (Streptococcus pneumoniae [6]; [15]): Synergy (Synergy: FICI≤0.5) | Σ FIC (Streptococcus pneumoniae [6]; [15]): <0.3 | MIC in combination, Antibiotic (Streptococcus pneumoniae [6]; Streptococcus pneumoniae, antibiotic in combination with SP-BIM 13): 1 µg/mL | FIC of antibiotic (Streptococcus pneumoniae [6]; Streptococcus pneumoniae, in combination with SP-BIM 13): 0.1 | MIC of antibiotic, No Compound (Pseudomonas aeruginosa): 32 µg/mL | MIC of antibiotic, No Compound (Bacillus cereus [7]): <0.5 µg/mL | MIC (Bacillus cereus [8]; SP-BIM 9 checkerboard): 4 µg/mL | MIC (Bacillus cereus [8]; SP-BIM 13 checkerboard): 4 µg/mL | MIC in combination, SP-BIM 9 (Bacillus cereus [8]; SP-BIM 9 concentration in combination with the labelled antibiotic): 125 µg/mL | FIC of SP-BIM 9 (Bacillus cereus [8]; [11]): 0.5 | FIC of SP-BIM 13 (Bacillus cereus [8]; [9]): 0.3 | Interpretation (Bacillus cereus [8]; antibiotic + SP-BIM 9): Synergy (Synergy: FICI≤0.5) | Σ FIC (Bacillus cereus [8]; antibiotic + SP-BIM 9): <0.6 | Interpretation (Bacillus cereus [8]; antibiotic + SP-BIM 13): Synergy (Synergy: FICI≤0.5) | Σ FIC (Bacillus cereus [8]; antibiotic + SP-BIM 13): 0.5 | MIC in combination, Antibiotic (Bacillus cereus [8]; [12]): 0.5 µg/mL | MIC in combination, Antibiotic (Bacillus cereus [8]; [10]): 1 µg/mL | FIC of antibiotic (Bacillus cereus [8]; in combination with SP-BIM 9): 0.125 | FIC of antibiotic (Bacillus cereus [8]; in combination with SP-BIM 13): 0.25
